What was measured:
[1] = Determination of the maximum tolerated dose (MTD); assay type: in vivo; conditions: mouse, in vivo, ip; single intraperitoneal administration, survival over 14 days, B6D2F1/Jico mice
Protocol: The evaluation of the maximum tolerated dose was carried out on 4- to 6-week-old B6D2F1/Jico mice. […] The value of the MTD (expressed in mg/kg) is determined from observing the survival rate of the animals over a period of 14 days after a single administration of the product under consideration. The change in the weight of the animals is also monitored over this period.

T24 = test: MTT cytotoxicity test, T24; assay type: cell-based; conditions: Homo sapiens, T-24, T24 bladder cancer, 72 hours, read-out: concentrations flanking the IC50
Protocol: (§1) The influence of the compounds of formulae I and II on neoplastic cells was evaluated using the MTT calorimetric test. The principle of the MTT test is based on the mitochondrial reduction by metabolically active live cells of the yellow-colored product MTT (3-(4,5-dimethylthiazol-2-yl)-2,5-diphenyltetrazolium bromide) to a blue-colored product, formazan. The amount of formazan thus obtained is directly proportional to the amount of live cells present in the culture well(s). This amount of formazan is measured by spectrophotometry.
(§2) The cell lines are maintained in monolayer culture at 37° C. in stoppered culture dishes containing 25 MM HEPES MEM (Minimum Essential Medium) base medium. This medium, which is suitable for growing a range of varied diploid or primary mammalian cells, is then supplemented: […]
(§3) with a an amount of 5% FCS (Fetal Calf Serum) decomplemented at 56° C. for 1 hour, with 0.6 mg/mL of L-glutamine, with 200 IU/mL of penicillin, with […] of streptomycin, with 0.1 mg/mL of gentamicin.
The 12 human cancer cell lines used were obtained from the American Type Culture Collection (ATCC, Rockville, Md., USA). These 12 cell lines are: […]

[2] = test system: 12 human tumor lines: U-87MG, U-373MG, SW 1088, T24, J82, HCT-15, LoVo, MCF7, T-47D, A549, A-427 and PC-3; test: MTT cytotoxicity test, panel of the 12 human tumor lines; assay type: cell-based; conditions: Homo sapiens, read-out: average IC50
Protocol: as §1, §2, §3
The 12 human cancer cell lines used were obtained from the American Type Culture Collection (ATCC, Rockville, Md., USA). These 12 cell lines are:
U-373MG (code ATCC: HTB-17) and U-87MG (code ATCC: HTB-14) which are two glioblastomas, SW1088 (code ATCC: HTB-12) which is an astrocytoma, A549 (code ATCC: CCL-185) and A-427 (code ATCC: HTB-53) which are two non-small-cell lung cancers, HCT-15 (code ATCC: CCL-225) and LoVo (code ATCC: CCL-229) which are two colorectal cancers, T-47D (code ATCC: HTB-133) and MCF7 (code ATCC: HTB-22) which are two breast cancers, J82 (code ATCC: HTB-1) and T24 (code ATCC: HTB-4) which are two bladder cancers, PC-3 (code ATCC: CRL-1435) which is a prostate cancer.
Experimentally: 100 μl of a cell suspension containing 200 000 to 50 000 (depending on the cell type used) cells/mL of culture medium are inoculated in flat-bottomed 96-well multi-well plates and are incubated at 37° C. under an atmosphere comprising 5% CO2 and 70% humidity. After incubating for 24 hours, the culture medium is replaced with 100 μl of fresh medium containing either the various test compounds at concentrations ranging from 10^−5 to 10^−10 M or the solvent used to dissolve the test products (control condition). After incubating for 72 hours under the above conditions, the culture medium is replaced with 100 μl of a yellowish solution of MTT dissolved at a rate of 1 mg/mL in RPMI 1640. The microplates are reincubated for 3 hours at 37° C. and then centrifuged for 10 minutes at 400×g. The yellowish solution of MTT is removed and the blue formazan crystals formed at the cellular level are dissolved in 100 μl of DMSO. The microplates are then agitated for 5 minutes. The intensity of the resulting blue coloration, and thus of the conversion of the yellow MTT product into blue formazan by the cells that are still alive at the end of the experiment is quantified by spectrophotometry using a DYNATECH IMMUNOASSAY SYSTEM machine at wavelengths of 570 nm and 630 nm corresponding, respectively, to the maximum absorption wavelengths of formazan and to the background noise. Software built into the spectrophotometer calculates the average optical density values and also the standard deviation (Std. Dev.) and standard error of mean (SEM) values.
The inhibitory activity on the cell growth of the compounds of formula I and of formula II on the different tumor cell lines was compared with that of the natural product meridine (CRL 8348). All of the compounds of formula I and of formula II show significant inhibitory activity on the cell proliferation of the 12 human tumor lines: U-87MG, U-373MG, SW 1088, T24, J82, HCT-15, LoVo, MCF7, T-47D, A549, A-427 and PC-3 with an inhibitory concentration 50 (IC50) which is between 10^−6 M and 10^−10M, depending on the compounds and the tumor lines tested. By way of example, the values of the concentrations flanking the IC50 which are obtained on the various cell lines are given in table II: […]

O=C1c2ncccc2-c2nc3ccccc3c3ccnc1c23 [CRL 8299, Benzo[b]pyrido[4,3,2-de][1,7]phenanthroline-8-one]
MTD at 14 days [1]: 80 mg/kg | IC50 (T24): < 0.1 nM | IC50 [2]: 2.2 nM

Source: US6583150B1, “Pharmaceutical composition based on polyaromatic compounds” (Laboratorie L. Lafon, priority 1999, dated 2003)
